Here are results for 13 compounds from patent US4839155A, “Iodotamoxifen derivatives and use for estrogen receptor-positive breast cancer detection and therapy” (National Research Development Corporation, priority 1986, dated 1989).

The test system of one data set is MCF-7 cells. Briefly: MCF-7 cell growth, % of control. As to conditions: for activity at 1 µM / activity at 0.1 µM / activity at 0.01 µM: Homo sapiens, MCF7, 37° C., 24 hours, ± standard deviation of four samples, >100 = growth stimulating (estrogenic); for activity at 1 µM: 10^-6 M; for activity at 0.1 µM: 10^-7 M; for activity at 0.01 µM: 10^-8 M; for activity in MCF-7 cell growth tests (in words): evaluation of Table 2, compared with tamoxifen. The data set is classed as cell-based, human.

Data set [1] addresses T1, estrogen receptor (rat uterine cytosol) (Rattus norvegicus, UniProt P06211).
T1 construct: from tissue; host or cells: immature rat uterus, cytosol
T1 sequence (P06211 1-600): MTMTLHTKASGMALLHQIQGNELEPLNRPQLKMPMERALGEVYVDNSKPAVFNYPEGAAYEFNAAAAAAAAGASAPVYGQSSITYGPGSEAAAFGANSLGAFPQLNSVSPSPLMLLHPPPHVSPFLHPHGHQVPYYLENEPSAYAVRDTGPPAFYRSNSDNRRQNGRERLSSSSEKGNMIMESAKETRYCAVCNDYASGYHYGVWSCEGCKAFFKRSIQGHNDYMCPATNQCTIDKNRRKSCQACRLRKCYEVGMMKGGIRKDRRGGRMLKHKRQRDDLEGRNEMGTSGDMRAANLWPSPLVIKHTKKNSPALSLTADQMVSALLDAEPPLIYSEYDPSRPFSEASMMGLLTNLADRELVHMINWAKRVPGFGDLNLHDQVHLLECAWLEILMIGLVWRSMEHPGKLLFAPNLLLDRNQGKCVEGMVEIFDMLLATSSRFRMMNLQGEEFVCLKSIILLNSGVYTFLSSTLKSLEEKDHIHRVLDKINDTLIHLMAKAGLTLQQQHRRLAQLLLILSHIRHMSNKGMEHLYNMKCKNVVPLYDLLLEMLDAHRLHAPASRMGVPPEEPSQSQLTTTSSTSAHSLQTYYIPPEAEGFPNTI
Kind of data set: Relative binding affinity (RBA), rat uterine cytosol, inhibition of (3H)estradiol binding. The conditions noted are these: RBA = [I50](estradiol)/[I50](test compound) × 100; 18° C., 30 minutes, 5×10^-9 M (3H)estradiol. On the procedure: Immature rat uterine cytosol was incubated at 18° C. for 30 minutes with 5×10^-9 M (^3 H)estradiol in the absence and presence of increasing amounts (10^-9 -10^-5 M) of the test compound or unlabelled estradiol (control). Unbound compounds were then removed with dextran-coated charcoal, and the amounts of estrogen receptor-bound (^3 H)estradiol were measured.
(§1) The higher the values in the rat uterine cytosol test the greater the antiestrogenic effect. In the whole cell test, on the other hand, the estrogen receptors are localised in the cell nucleus and therefore bound to DNA. In the whole cell test, a low value indicating poor binding to cell nucleus ER and consequently low estrogenicity, can be considered favorable.

For data set [2], the target named is T2, estrogen receptor (MCF-7 whole cells) (Homo sapiens, UniProt P03372).
T2 construct: host or cells: MCF-7 whole cells
T2 sequence (P03372 1-595): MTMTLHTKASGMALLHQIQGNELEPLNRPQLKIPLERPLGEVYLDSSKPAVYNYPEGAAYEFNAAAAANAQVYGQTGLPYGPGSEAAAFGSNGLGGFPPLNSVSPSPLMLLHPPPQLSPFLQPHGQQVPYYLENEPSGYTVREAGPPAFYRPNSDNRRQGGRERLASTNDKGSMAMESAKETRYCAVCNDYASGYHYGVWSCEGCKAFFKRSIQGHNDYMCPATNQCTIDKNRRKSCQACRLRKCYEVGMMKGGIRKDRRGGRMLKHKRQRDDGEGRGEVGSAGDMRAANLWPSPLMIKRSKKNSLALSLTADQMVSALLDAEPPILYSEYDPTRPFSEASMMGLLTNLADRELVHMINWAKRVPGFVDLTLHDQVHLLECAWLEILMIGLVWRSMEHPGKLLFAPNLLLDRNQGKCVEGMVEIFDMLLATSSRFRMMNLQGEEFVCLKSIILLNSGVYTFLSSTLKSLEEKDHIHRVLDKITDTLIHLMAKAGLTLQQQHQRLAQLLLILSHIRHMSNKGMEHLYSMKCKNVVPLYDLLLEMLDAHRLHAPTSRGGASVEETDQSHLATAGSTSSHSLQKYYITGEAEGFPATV
Kind of data set: Relative binding affinity (RBA), MCF-7 whole cell assay, inhibition of (3H)estradiol binding. As to conditions: RBA = [I50](estradiol)/[I50](test compound) × 100; 37° C., 50 minutes, 10^-9 M (3H)estradiol. On the procedure:
A whole cell assay was then performed using the MCF-7 human breast cancer cell line obtained from the Michigan Cancer Foundation, Detroit, USA. MCF-7 cells were maintained at 37° C. in monolayer culture in closed T-25 dishes in mininal essential medium (MEM) supplemented with L-glutamine (0.6 mg/ml), gentamycin (40 micrograms/ml). penicillin (100 U/ml) streptomycin (100 micrograms/ml) and 10% inactivated fetal calf serum (inactivated for 1 hour at 56° C.). The MCF-7 cells were incubated at 37° C. for 50 minutes with 10^-9 M (^3 H)estradiol in the absence or presence of increasing amounts (10^-10 -10^-5 M) of the test compound or unlabelled estradiol (control). Bound compounds were then extracted with ethanol, and the amounts of estrogen receptor bound (^3 H) estradiol were measured. The RBA values were calculated as for the rat uterine cytosol.
as §1

The conditions of data set [3]: in vivo; prior art; cited from earlier work.
Data set [4] concerns estrogen receptor. As to conditions: prior art; cited from earlier work.
Data set [5] has as its system estrogen receptor-positive breast cancer. Kind of data set: Potency in relation to estrogen receptor-positive breast cancer (summary statement). As to conditions: compared with tamoxifen.
The conditions of data set [6]: cited from earlier work.
Another data set has as its system estrogen receptor (ER). As to conditions: prior art; cited from earlier work.
In another data set the test system is rat uterine weight. As to conditions: compared with tamoxifen; K. E. Allen et al. (1980); cited from earlier work.
Data set [7] concerns estrogen receptor. The conditions noted are these: K. E. Allen et al. (1980); cited from earlier work.

Turning to `CC/C(=C(/c1ccc(OCCN(C)C)cc1)c1cccc(I)c1)c1ccccc1` [3-Iodotamoxifen, E 1-[4-(2-dimethylaminoethoxy)phenyl]-1-(3-iodophenyl)-2-phenyl-1-butene], in the data set with MCF-7 cells, the activity at 1 µM is 27 ± 5%, the activity at 0.1 µM amounted to 68 ± 2%, the activity at 0.01 µM was determined as 100 ± 8% and the “activity in MCF-7 cell growth tests (in words)” value (from here on “activity … (in words)”) was “about as active as tamoxifen”.

Regarding `CC/C(=C(\c1ccc(Br)cc1)c1ccc(OCCN(C)C)cc1)c1ccccc1` [4-Bromotamoxifen, E 1-[4-(2-dimethylaminoethoxy)phenyl]-1-(4-bromophenyl)-2-phenyl-1-butene], the “RBA (relative binding affinity), Rat uterine cytosol” value in data set [1] is reported as 3. Also, in the data set with MCF-7 cells, the activity at 1 µM worked out at 63 ± 8%, the activity at 0.1 µM was found to be 101 ± 8%, the activity at 0.01 µM came out at 130 ± 10% and the “activity … (in words)” value is given as “less active than tamoxifen”. In data set [2], the “RBA (relative binding affinity), MCF-7 whole cells” value is on record as 0.02.

In the case of `CC/C(=C(\c1ccc(O)cc1)c1ccc(OCCN(C)C)cc1)c1ccccc1` [4-Hydroxytamoxifen], the “glucuronidation of the hydroxyl group followed by excretion” value in data set [3] was “rapid glucuronidation of the hydroxyl group followed by excretion”. Further, in the data set with estrogen receptor [4], the “anti-estrogen potency in vitro” value is reported as “potent anti-estrogen”.

For `CC/C(=C(\c1ccc(I)cc1)c1ccc(OCCN(C)C)cc1)c1ccccc1` [4-Iodotamoxifen, E 1-[4-(2-dimethylaminoethoxy)phenyl]-1-(4-iodophenyl)-2-phenyl-1-butene], in [5], the “potency in relation to estrogen receptor-positive breast cancer” value is “greater potency than tamoxifen”. In addition, the “RBA (relative binding affinity), Rat uterine cytosol” value in data set [1] is on record as 30. Moreover, in the data set on MCF-7 cells, the activity at 1 µM turned out to be 26 ± 2%, the activity at 0.1 µM amounted to 42 ± 6% and the activity at 0.01 µM stood at 115 ± 6%. Besides, the “RBA (relative binding affinity), MCF-7 whole cells” value in [2] is listed as 0.05.

`CC/C(=C(\c1ccc(OC)cc1)c1ccc(OCCN(C)C)cc1)c1ccccc1` [4-methoxy derivative]: in [6] (compared with tamoxifen, K. E. Allen et al. (1980)), the “activity in other tests” value is on record as “about the same as tamoxifen”.

Take `CC/C(=C(\c1ccc(I)cc1)c1ccc(OCCN(CC)CC)cc1)c1ccccc1` [E-1-[4-(2-Diethylaminoethoxy)phenyl]-1-(4-iodophenyl)-2-phenyl-1-butene]: in the data set with MCF-7 cells, the activity at 1 µM was 23 ± 2%, the activity at 0.1 µM came to 35 ± 5% and the activity at 0.01 µM amounted to 101 ± 7%.

Take `CC/C(=C(\c1ccc(I)cc1)c1ccc(OCCN2CCCC2)cc1)c1ccccc1` [Pyrrolidino analogue of 4-iodotamoxifen, E-1-[4-(2-(N-pyrrolidino)ethoxy)phenyl]-1-(4-iodophenyl-2-phenyl-1-butene)]: in the data set with MCF-7 cells, the activity at 1 µM was 20 ± 2%, the activity at 0.1 µM came to 27 ± 3%, the activity at 0.01 µM worked out at 84 ± 5% and the “activity … (in words)” value was “particularly active”.

As to `CC/C(=C(\c1ccccc1)c1ccc(OCCN(C)C)cc1)c1ccccc1` [Tamoxifen, Z (1,2-diphenyl)-1-[4-(2-dimethylaminoethoxy)-phenyl]-1-butene], in the data set on estrogen receptor (ER), the “affinity for the estrogen receptor (ER)” value is on record as “relatively low affinity”. Further, in the data set on MCF-7 cells, the activity at 1 µM came to 30 ± 1% and the activity at 0.1 µM amounted to 52 ± 1%.

As to `CC/C(=C(/c1ccc(Br)cc1)c1ccc(OCCN(C)C)cc1)c1ccccc1` [Z isomer of 4-bromotamoxifen, reference compound], in the data set with MCF-7 cells, the activity at 1 µM turned out to be 174 ± 8%, the activity at 0.1 µM amounted to 163 ± 4% and the activity at 0.01 µM is 110 ± 3%.

As to `CC/C(=C(/c1ccc(I)cc1)c1ccc(OCCN(C)C)cc1)c1ccccc1` [Z isomer of 4-iodotamoxifen, reference compound], in the data set on MCF-7 cells, the activity at 1 µM was 120 ± 3%, the activity at 0.1 µM came to 126 ± 6% and the activity at 0.01 µM stood at 99 ± 13%.

For the compound `CC/C(=C(\c1ccc(Cl)cc1)c1ccc(OCCN(C)C)cc1)c1ccccc1` [chloro], the “anti-estrogenic activity, in vivo rat uterine weight tests” value (“anti-estrogenic activity” below) in the data set on rat uterine weight is “lower anti-estrogenic activity than tamoxifen”. For the same compound, in the data set with estrogen receptor [7], the “estrogen receptor affinity in vitro, compared with tamoxifen” value was “approximately equiactive”. Moreover, the “potency compared with tamoxifen (report by K. E. Allen et al.)” value in [6] is reported as “of no greater potency than tamoxifen”.

As to `CC/C(=C(\c1ccc(F)cc1)c1ccc(OCCN(C)C)cc1)c1ccccc1` [fluoro], the “anti-estrogenic activity” value in the data set with rat uterine weight is “lower anti-estrogenic activity than tamoxifen”. In the data set on estrogen receptor [7], the “estrogen receptor affinity in vitro, compared with tamoxifen” value was “approximately equiactive”. Further, the “potency compared with tamoxifen (report by K. E. Allen et al.)” value in data set [6] is “of no greater potency than tamoxifen”.

`CC/C(=C(\c1ccc(C)cc1)c1ccc(OCCN(C)C)cc1)c1ccccc1` [methyl]: in the data set with rat uterine weight, the “anti-estrogenic activity” value is recorded as “lower anti-estrogenic activity than tamoxifen”. Also, the “estrogen receptor affinity in vitro, compared with tamoxifen” value in the data set on estrogen receptor [7] is recorded as “approximately equiactive”.
